Our source for the IC50 and Kd values is ChEMBL document CHEMBL6182871, “Discovery of 4-((quinolin-8-ylthio)methyl)benzamide derivatives as a new class of SARS-CoV-2 nsp13 inhibitors” (Bioorg Med Chem Lett, 2025).

In experiment [1] the target is T1, Replicase polyprotein 1ab (Severe acute respiratory syndrome coronavirus 2, UniProt P0DTD1). Kind of experiment: Inhibition of SARS-CoV-2 nsp13 by FRET assay.
The target in experiment [2] is T1, Replicase polyprotein 1ab. As to the kind of experiment: Binding affinity to SARS-CoV-2 nsp13 assessed as dissociation constant by MST assay.

pIC50, pKd: −log10 of the molar value.

The term pIC50 denotes the IC50 on a negative log10 scale, so that one unit is a factor of ten. A lower pIC50 goes with a high IC50. In experiment [1], `O=C(N/N=C/c1cc([N+](=O)[O-])ccc1Cl)c1ccc(COc2cccc3ccccc23)cc1` showed a negative logarithm of the IC50 (pIC50) of less than 5.00.

Molecule `O=C(N/N=C/c1cc([N+](=O)[O-])ccc1Cl)c1ccc(CSc2ccnc3ccccc23)cc1` gave a pIC50 in experiment [1] of 6.12.

`O=C(N/N=C/c1cc([N+](=O)[O-])ccc1Cl)c1ccc(CNc2cccc3ccccc23)cc1` gave a pIC50 in experiment [1] of less than 5.00.

Consider `COc1cc(/C=N/NC(=O)c2ccc(CSc3cccc4cccnc34)cc2)ccc1O`, for which the negative logarithm of the IC50 (pIC50) in experiment [1] is 5.04.

`CSc1nnc(SCc2ccc(C(=O)N/N=C/c3cc([N+](=O)[O-])ccc3Cl)cc2)s1`: the pIC50 in experiment [1] is less than 5.00.

In turn, `COc1ccc(/C=N/NC(=O)c2ccc(CSc3cccc4cccnc34)cc2)c(O)c1` had a pIC50 in experiment [1] of 5.26.

As to `O=C(N/N=C/c1ccc(F)nc1)c1ccc(CSc2cccc3cccnc23)cc1`, in experiment [1], the pIC50 is 6.18.

Consider `O=C(N/N=C/c1ccc(Cl)nc1)c1ccc(CSc2cccc3cccnc23)cc1`, for which the pIC50 in experiment [1] was 5.29.

In turn, `COc1ccc(/C=N/NC(=O)c2ccc(CSc3cccc4cccnc34)cc2)cc1OC` showed a pIC50 in experiment [1] of 5.30.

Molecule `O=C(N/N=C/c1cc([N+](=O)[O-])ccc1Cl)c1ccc(CSc2cccc3ccccc23)cc1` had a negative logarithm of the IC50 (pIC50) in experiment [1] of less than 5.00.

Turning to `O=C(N/N=C/c1cc2c(cc1[N+](=O)[O-])OCO2)c1ccc(CSc2cccc3cccnc23)cc1`, the pIC50 in experiment [1] is 6.37.

In experiment [1], `O=C(N/N=C/c1cc([N+](=O)[O-])ccc1Cl)c1ccc(CSc2ccccc2Br)cc1` had a pIC50 of less than 5.00.

As to `C/C(=N\NC(=O)c1ccc(CSc2cccc3cccnc23)cc1)c1ccc(F)nc1`, the pIC50 in experiment [1] is less than 5.00.

As a reminder, the pKd is the Kd on a negative log10 scale, so that one unit is a factor of ten. Molecule `Cn1cc(/C=N/NC(=O)c2ccc(CSc3cccc4cccnc34)cc2)cn1` gave a pIC50 in experiment [1] of 4.57. Besides, the pKd in experiment [2] is 4.34.

Regarding `O=C(N/N=C/c1cccc(F)c1O)c1ccc(CSc2cccc3cccnc23)cc1`, the pIC50 in experiment [1] is 5.53.

`CC(C)NC(=O)c1ccc(/C=N/NC(=O)c2ccc(CSc3cccc4cccnc34)cc2)cc1`: the pIC50 in experiment [1] is 6.03.

For the molecule `O=C(N/N=C/c1cc(F)c(F)cc1O)c1ccc(CSc2cccc3cccnc23)cc1`, the pIC50 in experiment [1] was 5.63.

Turning to `O=C(N/N=C/c1ncccn1)c1ccc(CSc2cccc3cccnc23)cc1`, the pIC50 in experiment [1] is less than 5.00.

For the molecule `O=C(N/N=C/c1cc(O)c(Br)c(O)c1)c1ccc(CSc2cccc3cccnc23)cc1`, the pIC50 in experiment [1] is 5.69.

Consider `O=C(N/N=C/c1ccc(Br)o1)c1ccc(CSc2cccc3cccnc23)cc1`, for which, in experiment [1], the pIC50 is less than 5.00.

`O=C(N/N=C/c1cccc2ccncc12)c1ccc(CSc2cccc3cccnc23)cc1` showed a pIC50 in experiment [1] of 5.36.

Consider `O=C(N/N=C/c1cc2ccncc2[nH]1)c1ccc(CSc2cccc3cccnc23)cc1`, for which the pIC50 in experiment [1] was less than 5.00.

In the case of `O=C(N/N=C/c1ccc(F)cc1)c1ccc(CSc2cccc3cccnc23)cc1`, the pIC50 in experiment [1] is 5.59.

For the molecule `O=C(N/N=C/c1c(O)ccc2ccccc12)c1ccc(CSc2cccc3cccnc23)cc1`, the pIC50 in experiment [1] is 5.41.

`O=C(N/N=C/c1c(Cl)ccnc1Cl)c1ccc(CSc2cccc3cccnc23)cc1` gave a pIC50 in experiment [1] of 6.32.

Regarding `COc1cc(F)ccc1/C=N/NC(=O)c1ccc(CSc2cccc3cccnc23)cc1`, the pIC50 in experiment [1] was 5.55.

Turning to `O=C(N/N=C/c1ccc(F)cc1O)c1ccc(CSc2cccc3cccnc23)cc1`, the pIC50 in experiment [1] is 5.57.

On to `O=C(N/N=C/c1cc([N+](=O)[O-])ccc1Cl)c1ccc(CSc2cccc3cccnc23)cc1`, for which, in experiment [1], the pIC50 was 6.55.

Molecule `O=C(N/N=C/c1c(Cl)nc(Cl)nc1Cl)c1ccc(CSc2cccc3cccnc23)cc1` gave a pIC50 in experiment [1] of 5.53.

Regarding `COc1ccc(/C=N/NC(=O)c2ccc(CSc3cccc4cccnc34)cc2)cc1`, the pIC50 in experiment [1] is 6.02.
